Experimental data published in ChEMBL document CHEMBL1201862, “PubChem BioAssay data set” (2004).
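Where inhibition never reached the appropriate level, the endpoint shown equals the highest concentration tested. Otherwise, values were interpolated linearly from a five-concentration, 48-hour dose response in 96-well plates. The concentration for 50% growth inhibition is given as GI50.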 Calls of active or inactive are those of the source. No stated cut-off is given here; in the data, active = GI50 up to about 1.1 µM and inactive = higher.

Columns and labels:
Assay in all cases: inhibition of tumour cell growth, NCI panel, 48 h
MCF7 = test system: MCF7
U-251 = test system: U-251
MDA-MB-231 = test system: MDA-MB-231
IGROV-1 = test system: IGROV-1
HT-29 = test system: HT-29
SNB-75 = test system: SNB-75
MOLT-4 = test system: MOLT-4
SK-MEL-2 = test system: SK-MEL-2
PC-3 = test system: PC-3
786-0 = test system: 786-0
NCI-H23 = test system: NCI-H23
RPMI-8226 = test system: RPMI-8226
NCI-H226 = test system: NCI-H226
OVCAR-5 = test system: OVCAR-5
HCT-15 = test system: HCT-15
RXF 393 = test system: RXF 393
Malme-3M = test system: Malme-3M
UACC-62 = test system: UACC-62
ACHN = test system: ACHN
K562 = test system: K562
SF-268 = test system: SF-268
SF-539 = test system: SF-539
KM12 = test system: KM12
SNB-19 = test system: SNB-19
DU-145 = test system: DU-145
SW-620 = test system: SW-620
BT-549 = test system: BT-549
SR = test system: SR
UO-31 = test system: UO-31
MDA-MB-435 = test system: MDA-MB-435
Hs-578T = test system: Hs-578T
TK-10 = test system: TK-10
HCT-116 = test system: HCT-116
EKVX = test system: EKVX
SK-MEL-5 = test system: SK-MEL-5
MDA-N = test system: MDA-N
A549 = test system: A549
NCI-H460 = test system: NCI-H460
NCI/ADR-RES = test system: NCI/ADR-RES
T47D = test system: T47D
NCI-H522 = test system: NCI-H522
HOP-92 = test system: HOP-92
COLO 205 = test system: COLO 205
OVCAR-8 = test system: OVCAR-8
SF-295 = test system: SF-295
CAKI-1 = test system: CAKI-1
HL-60 = test system: HL-60
UACC-257 = test system: UACC-257
SK-OV-3 = test system: SK-OV-3
SN12C = test system: SN12C
M14 = test system: M14
LOX IMVI = test system: LOX IMVI
OVCAR-4 = test system: OVCAR-4
OVCAR-3 = test system: OVCAR-3
HOP-62 = test system: HOP-62
CCRF-CEM = test system: CCRF-CEM
SK-MEL-28 = test system: SK-MEL-28
A498 = test system: A498
HCC 2998 = test system: HCC 2998

Q: What does the source list for `CCCC(CCC(=O)O)(CCC(=O)O)[N+](=O)[O-]`?
A: GI50 (MCF7): > 100 µM (inactive); GI50 (U-251): > 100 µM (inactive); GI50 (MDA-MB-231): > 100 µM (inactive); GI50 (IGROV-1): > 100 µM (inactive); GI50 (HT-29): > 100 µM (inactive); GI50 (SNB-75): > 100 µM (inactive); GI50 (MOLT-4): > 100 µM (inactive); GI50 (SK-MEL-2): > 100 µM (inactive); GI50 (PC-3): > 100 µM (inactive); GI50 (786-0): > 100 µM (inactive); GI50 (NCI-H23): > 100 µM (inactive); GI50 (RPMI-8226): > 100 µM (inactive); GI50 (NCI-H226): > 100 µM (inactive); GI50 (OVCAR-5): > 100 µM (inactive); GI50 (HCT-15): > 100 µM; GI50 (RXF 393): > 100 µM (inactive); GI50 (Malme-3M): > 100 µM (inactive); GI50 (UACC-62): > 100 µM (inactive); GI50 (ACHN): > 100 µM (inactive); GI50 (K562): > 100 µM (inactive); GI50 (SF-268): > 100 µM (inactive); GI50 (SF-539): > 100 µM (inactive); GI50 (KM12): > 100 µM (inactive); GI50 (SNB-19): > 100 µM (inactive); GI50 (DU-145): > 100 µM (inactive); GI50 (SW-620): > 100 µM (inactive); GI50 (BT-549): > 100 µM (inactive); GI50 (SR): > 100 µM (inactive); GI50 (UO-31): > 100 µM (inactive); GI50 (MDA-MB-435): > 100 µM (inactive); GI50 (Hs-578T): > 100 µM (inactive); GI50 (TK-10): > 100 µM (inactive); GI50 (HCT-116): > 100 µM (inactive); GI50 (EKVX): > 100 µM (inactive); GI50 (SK-MEL-5): > 100 µM (inactive); GI50 (MDA-N): > 100 µM (inactive); GI50 (A549): > 100 µM (inactive); GI50 (NCI-H460): > 100 µM (inactive); GI50 (NCI/ADR-RES): > 100 µM (inactive); GI50 (T47D): > 100 µM (inactive); GI50 (NCI-H522): > 100 µM (inactive); GI50 (HOP-92): > 100 µM (inactive); GI50 (COLO 205): > 100 µM (inactive); GI50 (OVCAR-8): > 100 µM (inactive); GI50 (SF-295): > 100 µM (inactive); GI50 (CAKI-1): > 100 µM (inactive); GI50 (HL-60): > 100 µM (inactive); GI50 (UACC-257): > 100 µM (inactive); GI50 (SK-OV-3): > 100 µM (inactive); GI50 (SN12C): > 100 µM (inactive); GI50 (M14): > 100 µM (inactive)

Q: With `COc1ccc2c(c1)c(=O)c1c(NCCN(C)C)ccc3c(=O)n(CCN(C)C)c(=O)n2c31` as the compound, how does the GI50 (MCF7) read?
A: The GI50 was 0.0368 µM (active).

Q: And the GI50 (U-251)?
A: The GI50 was 0.0783 µM (active).

Q: What about the GI50 (MDA-MB-231) of the same compound?
A: Its GI50 is 0.191 µM (active).

Q: And the GI50 (LOX IMVI)?
A: Its GI50 is 0.104 µM (active).

Q: What about the GI50 (IGROV-1) of the same compound?
A: The GI50 was < 0.0232 µM (active).

Q: What about the GI50 (HT-29) of the same compound?
A: Its GI50 is 0.0197 µM (active).

Q: And the GI50 (SNB-75)?
A: The GI50 was 0.173 µM (active).

Q: What about the GI50 (MOLT-4) of the same compound?
A: Its GI50 is < 0.01 µM (active).

Q: What about the GI50 (SK-MEL-2) of the same compound?
A: Its GI50 is 0.182 µM (active).

Q: And the GI50 (PC-3)?
A: Its GI50 is 0.0925 µM (active).

Q: What about the GI50 (786-0) of the same compound?
A: Its GI50 is < 0.0125 µM (active).

Q: What about the GI50 (NCI-H23) of the same compound?
A: The GI50 was 0.11 µM (active).

Q: And the GI50 (RPMI-8226)?
A: The GI50 was 0.0323 µM (active).

Q: And the GI50 (NCI-H226)?
A: The GI50 was 0.163 µM (active).

Q: And the GI50 (OVCAR-5)?
A: Its GI50 is 0.254 µM (active).

Q: What about the GI50 (HCT-15) of the same compound?
A: Its GI50 is less than 0.0223 µM.

Q: And the GI50 (Malme-3M)?
A: Its GI50 is 0.29 µM (active).

Q: What about the GI50 (UACC-62) of the same compound?
A: Its GI50 is 0.156 µM (active).

Q: What about the GI50 (ACHN) of the same compound?
A: Its GI50 is 0.0138 µM (active).

Q: And the GI50 (K562)?
A: The GI50 was < 0.01 µM (active).

Q: And the GI50 (SF-268)?
A: The GI50 was 0.114 µM (active).

Q: What about the GI50 (SF-539) of the same compound?
A: Its GI50 is 0.0376 µM (active).

Q: And the GI50 (OVCAR-4)?
A: The GI50 was 0.101 µM (active).

Q: What about the GI50 (KM12) of the same compound?
A: Its GI50 is 0.0815 µM (active).

Q: What about the GI50 (SNB-19) of the same compound?
A: Its GI50 is 0.206 µM (active).

Q: And the GI50 (OVCAR-3)?
A: Its GI50 is 0.182 µM (active).

Q: What about the GI50 (HOP-62) of the same compound?
A: Its GI50 is 0.0711 µM (active).

Q: What about the GI50 (DU-145) of the same compound?
A: The GI50 was 0.0883 µM (active).

Q: And the GI50 (CCRF-CEM)?
A: The GI50 was < 0.01 µM (active).

Q: What about the GI50 (SW-620) of the same compound?
A: The GI50 was < 0.0105 µM (active).

Q: And the GI50 (BT-549)?
A: The GI50 was 0.764 µM (active).

Q: What about the GI50 (SK-MEL-28) of the same compound?
A: Its GI50 is 0.383 µM (active).

Q: And the GI50 (SR)?
A: The GI50 was < 0.01 µM (active).

Q: What about the GI50 (UO-31) of the same compound?
A: Its GI50 is 0.163 µM (active).

Q: And the GI50 (MDA-MB-435)?
A: The GI50 was 0.117 µM (active).

Q: What about the GI50 (A498) of the same compound?
A: The GI50 was 0.211 µM (active).

Q: And the GI50 (Hs-578T)?
A: The GI50 was 0.178 µM (active).

Q: What about the GI50 (TK-10) of the same compound?
A: The GI50 was 0.141 µM (active).

Q: What about the GI50 (HCT-116) of the same compound?
A: Its GI50 is < 0.014 µM (active).

Q: What about the GI50 (EKVX) of the same compound?
A: Its GI50 is 0.124 µM (active).

Q: What about the GI50 (SK-MEL-5) of the same compound?
A: The GI50 was 0.126 µM (active).

Q: What about the GI50 (MDA-N) of the same compound?
A: The GI50 was 0.1 µM (active).

Q: And the GI50 (A549)?
A: The GI50 was 0.0367 µM (active).

Q: And the GI50 (NCI-H460)?
A: The GI50 was < 0.01 µM (active).

Q: And the GI50 (NCI/ADR-RES)?
A: The GI50 was 0.109 µM (active).

Q: And the GI50 (T47D)?
A: The GI50 was 0.372 µM (active).

Q: What about the GI50 (NCI-H522) of the same compound?
A: Its GI50 is 0.0762 µM (active).

Q: What about the GI50 (HOP-92) of the same compound?
A: The GI50 was 0.0483 µM (active).

Q: And the GI50 (COLO 205)?
A: The GI50 was 0.0293 µM (active).

Q: What about the GI50 (OVCAR-8) of the same compound?
A: The GI50 was 0.0601 µM (active).

Q: And the GI50 (SF-295)?
A: The GI50 was 0.0853 µM (active).

Q: What about the GI50 (CAKI-1) of the same compound?
A: The GI50 was 0.0283 µM (active).

Q: And the GI50 (HL-60)?
A: The GI50 was 0.101 µM (active).

Q: What about the GI50 (UACC-257) of the same compound?
A: Its GI50 is 0.166 µM (active).

Q: And the GI50 (SK-OV-3)?
A: Its GI50 is 0.55 µM (active).

Q: What about the GI50 (SN12C) of the same compound?
A: The GI50 was 0.0298 µM (active).

Q: And the GI50 (HCC 2998)?
A: Its GI50 is 0.0247 µM (active).

Q: And the GI50 (M14)?
A: The GI50 was 0.159 µM (active).
